Where a SMILES comes first, the peptide text is derived from it. [ ]: non-standard residue; d: D form. The star is where a group is joined. X1 = Cc1ccc(Nc2ncc3c(n2)N(C)C(=O)N(c2cc(C(=O)*)ccc2C)C3)cn1; Aib = CC(C)(N)C(=O)O
Columns and labels:
Lck [1] = molecular target: T1, Lck (Homo sapiens, UniProt P06239); test: Biochemical IC50 on Lck at Km and 1 mM ATP
T1 construct: purchased Reaction Biology Corp
Protocol: (§1) Full panel kinase profiling and kinase IC50 measurement were performed by using Reaction Biology Corp. (San Diego, USA).

CDK9/cyclin T2 = molecular target: T2, CDK9/cyclin T2 (Homo sapiens, UniProt P50750); test: kinase selectivity profiling; type: biochemical; conditions: 10µM ATP, read-out: % inhibition (relative to DMSO)
T2 construct: purchased Reaction Biology Corp
Protocol: as §1

MSK1/RPS6KA5 = molecular target: T3, MSK1/RPS6KA5 (Homo sapiens, UniProt O75582); test: kinase selectivity profiling; type: biochemical; conditions: 10µM ATP, read-out: % inhibition (relative to DMSO)
T3 construct: purchased Reaction Biology Corp
Protocol: as §1

CDK2/cyclin O = molecular target: T4, CDK2/cyclin O (Homo sapiens, UniProt P24941); test: kinase selectivity profiling; type: biochemical; conditions: 10µM ATP, read-out: % inhibition (relative to DMSO)
T4 construct: purchased Reaction Biology Corp
Protocol: as §1

LCK2/ICK = molecular target: T5, LCK2/ICK (Homo sapiens, UniProt Q9UPZ9); test: kinase selectivity profiling; type: biochemical; conditions: 10µM ATP, read-out: % inhibition (relative to DMSO)
T5 construct: purchased Reaction Biology Corp
T5 sequence (Q9UPZ9 whole entry): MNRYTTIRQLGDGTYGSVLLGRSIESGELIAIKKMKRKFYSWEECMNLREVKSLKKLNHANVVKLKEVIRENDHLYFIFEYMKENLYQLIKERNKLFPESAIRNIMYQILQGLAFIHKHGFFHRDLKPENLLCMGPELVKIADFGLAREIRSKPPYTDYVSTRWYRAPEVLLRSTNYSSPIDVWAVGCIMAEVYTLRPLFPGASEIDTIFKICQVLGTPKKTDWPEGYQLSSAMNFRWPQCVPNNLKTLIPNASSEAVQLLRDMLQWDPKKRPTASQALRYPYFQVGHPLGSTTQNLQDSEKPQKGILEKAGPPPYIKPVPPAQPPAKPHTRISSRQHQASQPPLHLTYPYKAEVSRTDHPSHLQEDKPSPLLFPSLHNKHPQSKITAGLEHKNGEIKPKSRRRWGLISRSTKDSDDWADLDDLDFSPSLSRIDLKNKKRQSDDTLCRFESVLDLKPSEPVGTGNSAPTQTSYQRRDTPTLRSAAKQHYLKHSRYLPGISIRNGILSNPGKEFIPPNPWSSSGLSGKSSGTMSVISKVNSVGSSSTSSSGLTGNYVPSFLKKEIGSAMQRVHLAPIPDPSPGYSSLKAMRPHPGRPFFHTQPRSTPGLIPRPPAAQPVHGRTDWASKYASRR
Protocol: as §1

c-MET = molecular target: T6, c-MET (Homo sapiens, UniProt P08581); test: kinase selectivity profiling; type: biochemical; conditions: 10µM ATP, read-out: % inhibition (relative to DMSO)
T6 construct: purchased Reaction Biology Corp
Protocol: as §1

CAMK2a = molecular target: T7, CAMK2a (Homo sapiens, UniProt Q9UQM7); test: kinase selectivity profiling; type: biochemical; conditions: 10µM ATP, read-out: % inhibition (relative to DMSO)
T7 construct: purchased Reaction Biology Corp
Protocol: as §1

CDK6/cyclin D1 = molecular target: T8, CDK6/cyclin D1 (Homo sapiens, UniProt Q00534); test: kinase selectivity profiling; type: biochemical; conditions: 10µM ATP, read-out: % inhibition (relative to DMSO)
T8 construct: purchased Reaction Biology Corp
Protocol: as §1

CDK2/cyclin E2 = molecular target: T9, CDK2/cyclin E2 (Homo sapiens, UniProt P24941); test: kinase selectivity profiling; type: biochemical; conditions: 10µM ATP, read-out: % inhibition (relative to DMSO)
T9 construct: purchased Reaction Biology Corp
Protocol: as §1

DAPK2 = molecular target: T10, DAPK2 (Homo sapiens, UniProt Q9UIK4); test: kinase selectivity profiling; type: biochemical; conditions: 10µM ATP, read-out: % inhibition (relative to DMSO)
T10 construct: purchased Reaction Biology Corp
T10 sequence (Q9UIK4 whole entry): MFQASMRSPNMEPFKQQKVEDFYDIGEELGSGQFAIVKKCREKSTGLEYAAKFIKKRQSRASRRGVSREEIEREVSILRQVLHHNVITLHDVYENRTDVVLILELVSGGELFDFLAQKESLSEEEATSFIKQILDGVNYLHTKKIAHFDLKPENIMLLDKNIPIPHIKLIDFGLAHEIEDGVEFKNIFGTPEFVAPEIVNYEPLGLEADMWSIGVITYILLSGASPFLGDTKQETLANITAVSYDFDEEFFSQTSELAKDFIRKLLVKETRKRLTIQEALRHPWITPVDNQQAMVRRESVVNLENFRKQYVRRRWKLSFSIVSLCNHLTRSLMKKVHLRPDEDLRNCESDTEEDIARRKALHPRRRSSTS
Protocol: as §1

WNK3 = molecular target: T11, WNK3 (Homo sapiens, UniProt Q9BYP7); test: kinase selectivity profiling; type: biochemical; conditions: 10µM ATP, read-out: % inhibition (relative to DMSO)
T11 construct: purchased Reaction Biology Corp
Protocol: as §1

MELK = molecular target: T12, MELK (Homo sapiens, UniProt Q14680); test: kinase selectivity profiling; type: biochemical; conditions: 10µM ATP, read-out: % inhibition (relative to DMSO)
T12 construct: purchased Reaction Biology Corp
Protocol: as §1

PHKg2 = molecular target: T13, PHKg2 (Homo sapiens, UniProt P15735); test: kinase selectivity profiling; type: biochemical; conditions: 10µM ATP, read-out: % inhibition (relative to DMSO)
T13 construct: purchased Reaction Biology Corp
Protocol: as §1

PAK1 = molecular target: T14, PAK1 (Homo sapiens, UniProt Q13153); test: kinase selectivity profiling; type: biochemical; conditions: 10µM ATP, read-out: % inhibition (relative to DMSO)
T14 construct: purchased Reaction Biology Corp
Protocol: as §1

FGFR4 = molecular target: T15, FGFR4 (Homo sapiens, UniProt P22455); test: kinase selectivity profiling; type: biochemical; conditions: 10µM ATP, read-out: % inhibition (relative to DMSO)
T15 construct: purchased Reaction Biology Corp
T15 sequence (P22455 22-802): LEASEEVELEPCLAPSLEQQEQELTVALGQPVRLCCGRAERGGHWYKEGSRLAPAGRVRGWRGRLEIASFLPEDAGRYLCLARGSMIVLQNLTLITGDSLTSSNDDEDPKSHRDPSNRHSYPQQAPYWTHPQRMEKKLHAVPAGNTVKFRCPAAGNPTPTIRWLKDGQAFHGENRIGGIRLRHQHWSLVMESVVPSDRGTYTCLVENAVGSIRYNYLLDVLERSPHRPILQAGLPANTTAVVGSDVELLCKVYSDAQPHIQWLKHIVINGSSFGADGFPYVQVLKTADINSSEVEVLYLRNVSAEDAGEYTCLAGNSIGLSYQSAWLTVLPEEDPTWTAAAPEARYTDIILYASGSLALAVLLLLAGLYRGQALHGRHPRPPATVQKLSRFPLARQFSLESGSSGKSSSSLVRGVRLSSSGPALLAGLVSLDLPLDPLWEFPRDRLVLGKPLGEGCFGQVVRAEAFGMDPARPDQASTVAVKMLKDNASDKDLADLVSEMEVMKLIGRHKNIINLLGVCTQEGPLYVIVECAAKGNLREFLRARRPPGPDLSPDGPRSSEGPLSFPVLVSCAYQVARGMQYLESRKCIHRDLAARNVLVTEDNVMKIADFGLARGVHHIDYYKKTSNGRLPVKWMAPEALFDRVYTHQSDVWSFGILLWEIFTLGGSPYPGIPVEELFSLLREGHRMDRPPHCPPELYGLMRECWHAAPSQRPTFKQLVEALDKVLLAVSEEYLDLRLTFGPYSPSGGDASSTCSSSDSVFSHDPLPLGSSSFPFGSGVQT
Protocol: as §1

MRCKa/CDC42BPA = molecular target: T16, MRCKa/CDC42BPA (Homo sapiens, UniProt Q5VT25); test: kinase selectivity profiling; type: biochemical; conditions: 10µM ATP, read-out: % inhibition (relative to DMSO)
T16 construct: purchased Reaction Biology Corp
Protocol: as §1

LIMK2 = molecular target: T17, LIMK2 (Homo sapiens, UniProt P53671); test: kinase selectivity profiling; type: biochemical; conditions: 10µM ATP, read-out: % inhibition (relative to DMSO)
T17 construct: purchased Reaction Biology Corp
Protocol: as §1

IKKa/CHUK = molecular target: T18, IKKa/CHUK (Homo sapiens, UniProt O15111); test: kinase selectivity profiling; type: biochemical; conditions: 10µM ATP, read-out: % inhibition (relative to DMSO)
T18 construct: purchased Reaction Biology Corp
Protocol: as §1

Lyn = molecular target: T19, Lyn (Homo sapiens, UniProt P07948); test: kinase selectivity profiling; type: biochemical; conditions: 10µM ATP, read-out: % inhibition (relative to DMSO)
T19 construct: purchased Reaction Biology Corp
Protocol: as §1

BRSK1 = molecular target: T20, BRSK1 (Homo sapiens, UniProt Q8TDC3); test: kinase selectivity profiling; type: biochemical; conditions: 10µM ATP, read-out: % inhibition (relative to DMSO)
T20 construct: purchased Reaction Biology Corp
T20 sequence (Q8TDC3 whole entry): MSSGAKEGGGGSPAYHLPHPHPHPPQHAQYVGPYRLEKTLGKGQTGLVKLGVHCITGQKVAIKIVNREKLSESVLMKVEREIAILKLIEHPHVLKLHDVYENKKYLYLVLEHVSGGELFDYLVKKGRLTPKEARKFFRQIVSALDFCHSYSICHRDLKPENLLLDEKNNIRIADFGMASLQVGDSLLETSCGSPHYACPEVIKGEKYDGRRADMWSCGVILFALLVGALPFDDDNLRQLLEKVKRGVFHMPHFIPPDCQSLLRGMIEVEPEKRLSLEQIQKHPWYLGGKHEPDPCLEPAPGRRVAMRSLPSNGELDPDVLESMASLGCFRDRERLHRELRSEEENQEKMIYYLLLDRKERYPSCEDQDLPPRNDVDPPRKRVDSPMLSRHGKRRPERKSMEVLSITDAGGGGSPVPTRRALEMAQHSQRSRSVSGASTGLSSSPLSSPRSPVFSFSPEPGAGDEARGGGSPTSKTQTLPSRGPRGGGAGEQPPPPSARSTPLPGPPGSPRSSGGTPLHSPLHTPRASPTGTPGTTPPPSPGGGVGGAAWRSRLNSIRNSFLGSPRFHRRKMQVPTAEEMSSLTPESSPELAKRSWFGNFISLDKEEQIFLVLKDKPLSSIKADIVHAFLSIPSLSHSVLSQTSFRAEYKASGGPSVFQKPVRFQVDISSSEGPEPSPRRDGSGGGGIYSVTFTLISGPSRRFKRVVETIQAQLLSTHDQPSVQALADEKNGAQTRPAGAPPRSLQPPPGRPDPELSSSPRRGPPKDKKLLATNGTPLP
Protocol: as §1

CDK4/cyclin D1 = molecular target: T21, CDK4/cyclin D1 (Homo sapiens, UniProt P11802); test: kinase selectivity profiling; type: biochemical; conditions: 10µM ATP, read-out: % inhibition (relative to DMSO)
T21 construct: purchased Reaction Biology Corp
Protocol: as §1

PIM3 = molecular target: T22, PIM3 (Homo sapiens, UniProt Q86V86); test: kinase selectivity profiling; type: biochemical; conditions: 10µM ATP, read-out: % inhibition (relative to DMSO)
T22 construct: purchased Reaction Biology Corp
Protocol: as §1

MLK2/MAP3K10 = molecular target: T23, MLK2/MAP3K10 (Homo sapiens, UniProt Q02779); test: kinase selectivity profiling; type: biochemical; conditions: 10µM ATP, read-out: % inhibition (relative to DMSO)
T23 construct: purchased Reaction Biology Corp
Protocol: as §1

MAK = molecular target: T24, MAK (Homo sapiens, UniProt P20794); test: kinase selectivity profiling; type: biochemical; conditions: 10µM ATP, read-out: % inhibition (relative to DMSO)
T24 construct: purchased Reaction Biology Corp
Protocol: as §1

BTK = molecular target: T25, BTK (Homo sapiens, UniProt Q06187); test: kinase selectivity profiling; type: biochemical; conditions: 10µM ATP, read-out: % inhibition (relative to DMSO)
T25 construct: purchased Reaction Biology Corp
Protocol: as §1

SGK3/SGKL = molecular target: T26, SGK3/SGKL (Homo sapiens, UniProt Q96BR1); test: kinase selectivity profiling; type: biochemical; conditions: 10µM ATP, read-out: % inhibition (relative to DMSO)
T26 construct: purchased Reaction Biology Corp
Protocol: as §1

TIE2/TEK = molecular target: T27, TIE2/TEK (Homo sapiens, UniProt Q02763); test: kinase selectivity profiling; type: biochemical; conditions: 10µM ATP, read-out: % inhibition (relative to DMSO)
T27 construct: purchased Reaction Biology Corp
Protocol: as §1

ALK5/TGFBR1 = molecular target: T28, ALK5/TGFBR1 (Homo sapiens, UniProt P36897); test: kinase selectivity profiling; type: biochemical; conditions: 10µM ATP, read-out: % inhibition (relative to DMSO)
T28 construct: purchased Reaction Biology Corp
Protocol: as §1

Aurora A = molecular target: T29, Aurora A (Homo sapiens, UniProt O14965); test: kinase selectivity profiling; type: biochemical; conditions: 10µM ATP, read-out: % inhibition (relative to DMSO)
T29 construct: purchased Reaction Biology Corp
Protocol: as §1

Lck [2] = molecular target: T1, Lck; test: kinase selectivity profiling; type: biochemical; conditions: 10µM ATP, read-out: % inhibition (relative to DMSO)
Protocol: as §1

IRR/INSRR = molecular target: T30, IRR/INSRR (Homo sapiens, UniProt P14616); test: kinase selectivity profiling; type: biochemical; conditions: 10µM ATP, read-out: % inhibition (relative to DMSO)
T30 construct: purchased Reaction Biology Corp
T30 sequence (P14616 27-1297): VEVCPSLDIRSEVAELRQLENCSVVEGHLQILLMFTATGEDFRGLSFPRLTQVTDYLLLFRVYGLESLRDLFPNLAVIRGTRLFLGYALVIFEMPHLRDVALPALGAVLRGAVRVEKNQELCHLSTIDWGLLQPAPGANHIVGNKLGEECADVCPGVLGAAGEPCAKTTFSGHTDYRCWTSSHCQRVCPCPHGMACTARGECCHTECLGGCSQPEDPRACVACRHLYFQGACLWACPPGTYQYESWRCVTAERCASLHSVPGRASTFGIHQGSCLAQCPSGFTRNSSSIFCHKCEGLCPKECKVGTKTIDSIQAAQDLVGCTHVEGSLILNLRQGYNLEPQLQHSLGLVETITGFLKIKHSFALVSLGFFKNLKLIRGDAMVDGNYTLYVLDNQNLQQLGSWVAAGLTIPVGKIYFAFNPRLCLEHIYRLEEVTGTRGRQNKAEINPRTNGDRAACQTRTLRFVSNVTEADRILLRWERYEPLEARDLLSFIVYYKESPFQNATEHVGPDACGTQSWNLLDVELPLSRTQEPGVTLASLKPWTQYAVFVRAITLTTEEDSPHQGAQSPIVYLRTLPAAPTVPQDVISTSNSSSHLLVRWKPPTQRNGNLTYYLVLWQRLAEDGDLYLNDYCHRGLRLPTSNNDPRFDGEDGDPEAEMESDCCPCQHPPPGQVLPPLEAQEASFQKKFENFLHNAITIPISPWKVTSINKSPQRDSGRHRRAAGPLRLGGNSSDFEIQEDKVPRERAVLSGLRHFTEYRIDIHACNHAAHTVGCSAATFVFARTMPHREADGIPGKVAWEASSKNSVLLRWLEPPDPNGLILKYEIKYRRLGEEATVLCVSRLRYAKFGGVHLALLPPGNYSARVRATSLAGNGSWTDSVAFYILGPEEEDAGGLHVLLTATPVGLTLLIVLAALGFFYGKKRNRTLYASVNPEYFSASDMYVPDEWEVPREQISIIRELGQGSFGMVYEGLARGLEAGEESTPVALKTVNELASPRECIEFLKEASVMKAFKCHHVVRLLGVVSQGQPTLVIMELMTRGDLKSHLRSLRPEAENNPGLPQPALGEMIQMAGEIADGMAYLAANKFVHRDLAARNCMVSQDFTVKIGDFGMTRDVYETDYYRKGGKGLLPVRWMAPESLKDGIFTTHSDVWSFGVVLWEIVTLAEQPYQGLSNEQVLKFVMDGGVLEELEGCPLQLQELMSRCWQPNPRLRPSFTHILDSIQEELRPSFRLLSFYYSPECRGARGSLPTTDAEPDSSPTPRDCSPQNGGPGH
Protocol: as §1

TSSK2 = molecular target: T31, TSSK2 (Homo sapiens, UniProt Q96PF2); test: kinase selectivity profiling; type: biochemical; conditions: 10µM ATP, read-out: % inhibition (relative to DMSO)
T31 construct: purchased Reaction Biology Corp
T31 sequence (Q96PF2 whole entry): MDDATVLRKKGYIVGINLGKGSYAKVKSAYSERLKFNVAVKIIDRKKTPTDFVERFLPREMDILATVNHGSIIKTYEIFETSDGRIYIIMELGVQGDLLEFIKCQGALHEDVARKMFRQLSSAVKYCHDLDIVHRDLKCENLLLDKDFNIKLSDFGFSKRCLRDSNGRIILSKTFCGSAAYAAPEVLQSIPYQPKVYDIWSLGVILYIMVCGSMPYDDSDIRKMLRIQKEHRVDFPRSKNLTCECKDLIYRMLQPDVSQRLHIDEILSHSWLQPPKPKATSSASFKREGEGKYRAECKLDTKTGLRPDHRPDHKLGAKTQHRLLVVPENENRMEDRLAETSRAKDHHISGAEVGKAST
Protocol: as §1

MLCK2/MYLK2 = molecular target: T32, MLCK2/MYLK2 (Homo sapiens, UniProt Q9H1R3); test: kinase selectivity profiling; type: biochemical; conditions: 10µM ATP, read-out: % inhibition (relative to DMSO)
T32 construct: purchased Reaction Biology Corp
Protocol: as §1

CK2a = molecular target: T33, CK2a (Homo sapiens, UniProt P68400); test: kinase selectivity profiling; type: biochemical; conditions: 10µM ATP, read-out: % inhibition (relative to DMSO)
T33 construct: purchased Reaction Biology Corp
Protocol: as §1

CDK6/cyclin D3 = molecular target: T34, CDK6/cyclin D3 (Homo sapiens, UniProt Q00534); test: kinase selectivity profiling; type: biochemical; conditions: 10µM ATP, read-out: % inhibition (relative to DMSO)
T34 construct: purchased Reaction Biology Corp
Protocol: as §1

NEK3 = molecular target: T35, NEK3 (Homo sapiens, UniProt P51956); test: kinase selectivity profiling; type: biochemical; conditions: 10µM ATP, read-out: % inhibition (relative to DMSO)
T35 construct: purchased Reaction Biology Corp
Protocol: as §1

PLK2 = molecular target: T36, PLK2 (Homo sapiens, UniProt Q9NYY3); test: kinase selectivity profiling; type: biochemical; conditions: 10µM ATP, read-out: % inhibition (relative to DMSO)
T36 construct: purchased Reaction Biology Corp
Protocol: as §1

PKG2/PRKG2 = molecular target: T37, PKG2/PRKG2 (Homo sapiens, UniProt Q13237); test: kinase selectivity profiling; type: biochemical; conditions: 10µM ATP, read-out: % inhibition (relative to DMSO)
T37 construct: purchased Reaction Biology Corp
Protocol: as §1

MLK3/MAP3K11 = molecular target: T38, MLK3/MAP3K11 (Homo sapiens, UniProt Q16584); test: kinase selectivity profiling; type: biochemical; conditions: 10µM ATP, read-out: % inhibition (relative to DMSO)
T38 construct: purchased Reaction Biology Corp
Protocol: as §1

EGFR = molecular target: T39, EGFR (Homo sapiens, UniProt P00533); test: kinase selectivity profiling; type: biochemical; conditions: 10µM ATP, read-out: % inhibition (relative to DMSO)
T39 construct: purchased Reaction Biology Corp
Protocol: as §1

WNK1 = molecular target: T40, WNK1 (Homo sapiens, UniProt Q9H4A3); test: kinase selectivity profiling; type: biochemical; conditions: 10µM ATP, read-out: % inhibition (relative to DMSO)
T40 construct: purchased Reaction Biology Corp
Protocol: as §1

MYLK4 = molecular target: T41, MYLK4 (Homo sapiens, UniProt Q86YV6); test: kinase selectivity profiling; type: biochemical; conditions: 10µM ATP, read-out: % inhibition (relative to DMSO)
T41 construct: purchased Reaction Biology Corp
Protocol: as §1

T1 sequence (P06239 whole entry): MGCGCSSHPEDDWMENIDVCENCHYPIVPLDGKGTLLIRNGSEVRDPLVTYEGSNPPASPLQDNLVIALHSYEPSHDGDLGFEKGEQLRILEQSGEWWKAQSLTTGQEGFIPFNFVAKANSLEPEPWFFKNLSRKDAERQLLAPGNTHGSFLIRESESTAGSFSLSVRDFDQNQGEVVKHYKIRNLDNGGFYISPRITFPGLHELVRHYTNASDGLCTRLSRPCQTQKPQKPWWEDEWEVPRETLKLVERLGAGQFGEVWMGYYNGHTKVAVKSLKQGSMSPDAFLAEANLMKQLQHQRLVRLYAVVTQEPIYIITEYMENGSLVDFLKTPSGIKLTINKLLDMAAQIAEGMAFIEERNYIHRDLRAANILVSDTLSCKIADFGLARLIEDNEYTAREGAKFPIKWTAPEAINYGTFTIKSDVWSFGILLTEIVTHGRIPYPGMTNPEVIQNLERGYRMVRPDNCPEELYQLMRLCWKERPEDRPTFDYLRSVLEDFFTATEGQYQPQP

## Cc1ccc(Nc2ncc3c(n2)N(C)C(=O)N(c2cc(C(=O)N[C@H](C(=O)N4CCC[C@H]4C(=O)NC(C)(C)C(=O)N[C@@H](CC(C)C)C(=O)N(C)C)C(C)C)ccc2C)C3)cn1 [7a, (S)-N-(1-(((S)-1-(dimethylamino)-4-methyl-1-oxopentan-2-yl)amino)-2-methyl-1-oxopropan-2-yl)-1-((4-methyl-3-(1-methyl-7-((6-methylpyridin-3-yl)amino)-2-oxo-1,4-dihydropyrimido[4,5-d]pyrimidin-3(2H)-yl)benzoyl)-L-valyl)pyrrolidine-2-carboxamide] (X1-VP[Aib]L-NMe2)
Lck [1]; ATP conc. 14 µM (Km)
  IC50: 190 nM
Lck [1]; ATP conc. 1 mM
  IC50: 21000 nM
Lck [1]; IC50 at Km vs 1 mM ATP
  mode of inhibition: ATP competitive kinase inhibitors
CDK9/cyclin T2
  inhibition at 1 µM: 0%
MSK1/RPS6KA5
  inhibition at 1 µM: 0%
CDK2/cyclin O
  inhibition at 1 µM: 0%
LCK2/ICK
  inhibition at 1 µM: 0%
c-MET
  inhibition at 1 µM: 14%
CAMK2a
  inhibition at 1 µM: 8%
CDK6/cyclin D1
  inhibition at 1 µM: 0%
CDK2/cyclin E2
  inhibition at 1 µM: 0%
DAPK2
  inhibition at 1 µM: 1%
WNK3
  inhibition at 1 µM: 19%
MELK
  inhibition at 1 µM: 4%
PHKg2
  inhibition at 1 µM: 0%
PAK1
  inhibition at 1 µM: 5%
FGFR4
  inhibition at 1 µM: 5%
MRCKa/CDC42BPA
  inhibition at 1 µM: 6%
LIMK2
  inhibition at 1 µM: 12%
IKKa/CHUK
  inhibition at 1 µM: 6%
Lyn
  inhibition at 1 µM: 73%
BRSK1
  inhibition at 1 µM: 2%
CDK4/cyclin D1
  inhibition at 1 µM: 0%
PIM3
  inhibition at 1 µM: 0%
MLK2/MAP3K10
  inhibition at 1 µM: 16%
MAK
  inhibition at 1 µM: 0%
BTK
  inhibition at 1 µM: 6%
SGK3/SGKL
  inhibition at 1 µM: 6%
TIE2/TEK
  inhibition at 1 µM: 0%
ALK5/TGFBR1
  inhibition at 1 µM: 0%
Aurora A
  inhibition at 1 µM: 0%
Lck [2]
  inhibition at 1 µM: 94%
IRR/INSRR
  inhibition at 1 µM: 5%
TSSK2
  inhibition at 1 µM: 0%
MLCK2/MYLK2
  inhibition at 1 µM: 0%
CK2a
  inhibition at 1 µM: 5%
CDK6/cyclin D3
  inhibition at 1 µM: 0%
NEK3
  inhibition at 1 µM: 0%
PLK2
  inhibition at 1 µM: 0%
PKG2/PRKG2
  inhibition at 1 µM: 11%
MLK3/MAP3K11
  inhibition at 1 µM: 34%
EGFR
  inhibition at 1 µM: 0%
WNK1
  inhibition at 1 µM: 0%
MYLK4
  inhibition at 1 µM: 8%
